Source: BindingDB's records for doi:10.7270/Q2NK3CFW (Nmmlsc, 2009)

The compounds below were run against Cell division control protein 42 homolog (Homo sapiens, UniProt P60953) (assay: wild-type Cdc42 nucleotide-binding inhibitors, SAR follow-up, biochemical, bead-based multiplex flow cytometry, oxadiazole series (AID 2037)). Details: not given.
Sequence of Cell division control protein 42 homolog (P60953 whole entry): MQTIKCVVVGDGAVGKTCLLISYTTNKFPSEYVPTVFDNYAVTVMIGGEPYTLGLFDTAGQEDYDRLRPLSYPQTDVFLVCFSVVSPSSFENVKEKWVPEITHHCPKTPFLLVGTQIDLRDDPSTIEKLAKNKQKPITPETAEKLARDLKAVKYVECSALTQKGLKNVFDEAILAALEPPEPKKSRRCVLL

EC50 | Structure (SMILES)
2770 nM | COc1cccc(-c2noc(CCC(=O)N3CCN(c4cc(C)ccc4C)CC3)n2)c1
> 30000 nM | Cc1ccc(C)c(N2CCN(C(=O)CCc3nc(-c4ccccc4C)no3)CC2)c1
> 30000 nM | COc1ccc(-c2noc(CCC(=O)N3CCN(c4cccc(Cl)c4)CC3)n2)cc1
4950 nM | Cc1ccc(C)c(N2CCN(C(=O)CCc3nc(-c4ccccc4C(F)(F)F)no3)CC2)c1
1710 nM | COc1ccc(-c2noc(CCC(=O)N3CCN(c4ccccc4C)CC3)n2)cc1
> 30000 nM | COc1ccc(-c2ccc(CCC(=O)N3CCN(c4cc(C)ccc4C)CC3)s2)cc1
4370 nM | Cc1ccc(-c2noc(CCC(=O)N3CCN(c4cc(C)ccc4C)CC3)n2)cc1 [1-[4-(2,5-dimethylphenyl)-1-piperazinyl]-3-[3-(4-methylphenyl)-1,2,4-oxadiazol-5-yl]-1-propanone]
> 30000 nM | COc1ccc(-c2noc(CCCCC(=O)N3CCN(c4cc(C)ccc4C)CC3)n2)cc1 [1-[4-(2,5-dimethylphenyl)-1-piperazinyl]-5-[3-(4-methoxyphenyl)-1,2,4-oxadiazol-5-yl]-1-pentanone]
> 30000 nM | COc1ccc(-c2noc(CC(=O)N3CCN(c4cc(C)ccc4C)CC3)n2)cc1 [1-[4-(2,5-dimethylphenyl)piperazin-1-yl]-2-[3-(4-methoxyphenyl)-1,2,4-oxadiazol-5-yl]ethanone]
1020 nM | Cc1cccc(-c2noc(CCC(=O)N3CCN(c4cc(C)ccc4C)CC3)n2)c1 [1-[4-(2,5-dimethylphenyl)piperazin-1-yl]-3-[3-(3-methylphenyl)-1,2,4-oxadiazol-5-yl]propan-1-one]
> 30000 nM | COc1ccc(-c2cc(CCC(=O)N3CCN(c4cc(C)ccc4C)CC3)on2)cc1 [1-[4-(2,5-dimethylphenyl)piperazin-1-yl]-3-[3-(4-methoxyphenyl)-1,2-oxazol-5-yl]propan-1-one]
2280 nM | COc1ccc(-c2coc(CCC(=O)N3CCN(c4cc(C)ccc4C)CC3)n2)cc1 [1-[4-(2,5-dimethylphenyl)piperazin-1-yl]-3-[4-(4-methoxyphenyl)-1,3-oxazol-2-yl]propan-1-one]
> 30000 nM | COc1ccc(-c2ccc(CCC(=O)N3CCN(c4cc(C)ccc4C)CC3)[nH]2)cc1 [1-[4-(2,5-dimethylphenyl)piperazin-1-yl]-3-[5-(4-methoxyphenyl)-1H-pyrrol-2-yl]propan-1-one]
805 nM | COc1ccc(-c2noc(CCC(=O)N3CCN(c4ccccc4Cl)CC3)n2)cc1 [1-[4-(2-chlorophenyl)piperazin-1-yl]-3-[3-(4-methoxyphenyl)-1,2,4-oxadiazol-5-yl]propan-1-one]
> 30000 nM | COc1ccc(-c2noc(CCC(=O)N3CCN(c4cccc(Br)c4)CC3)n2)cc1 [1-[4-(3-bromophenyl)-1-piperazinyl]-3-[3-(4-methoxyphenyl)-1,2,4-oxadiazol-5-yl]-1-propanone]
> 30000 nM | COc1ccc(-c2noc(CCC(=O)N3CCN(c4cccc(F)c4)CC3)n2)cc1 [1-[4-(3-fluorophenyl)piperazin-1-yl]-3-[3-(4-methoxyphenyl)-1,2,4-oxadiazol-5-yl]propan-1-one]
> 30000 nM | COc1ccc(-c2noc(CCC(=O)N3CCN(c4ccc(Br)cc4)CC3)n2)cc1 [1-[4-(4-bromophenyl)piperazin-1-yl]-3-[3-(4-methoxyphenyl)-1,2,4-oxadiazol-5-yl]propan-1-one]
> 30000 nM | Cc1ccc(C)c(N2CCN(C(=O)CCc3nc(-c4ccccc4Cl)no3)CC2)c1 [3-[3-(2-chlorophenyl)-1,2,4-oxadiazol-5-yl]-1-[4-(2,5-dimethylphenyl)-1-piperazinyl]-1-propanone]

EC50 | Structure (SMILES)
> 30000 nM | COc1ccc(-c2noc(CCC(=O)N3CCN(c4ccccc4)CC3)n2)cc1 [3-[3-(4-methoxyphenyl)-1,2,4-oxadiazol-5-yl]-1-(4-phenylpiperazin-1-yl)propan-1-one]
> 30000 nM | COc1ccc(-c2noc(CCC(=O)N3CCN(c4ccccc4OC)CC3)n2)cc1 [3-[3-(4-methoxyphenyl)-1,2,4-oxadiazol-5-yl]-1-[4-(2-methoxyphenyl)-1-piperazinyl]-1-propanone]
> 30000 nM | COc1ccc(-c2noc(CCC(=O)N3CCN(c4ccc(C(F)(F)F)cc4)CC3)n2)cc1 [3-[3-(4-methoxyphenyl)-1,2,4-oxadiazol-5-yl]-1-[4-[4-(trifluoromethyl)phenyl]piperazin-1-yl]propan-1-one]
6210 nM | COc1ccc(-c2noc(CCCC(=O)N3CCN(c4cc(C)ccc4C)CC3)n2)cc1 [KUC103353N]
> 30000 nM | Cc1ccc(C)c(N2CCN(C(=O)CCc3nc(-c4cccc(F)c4)no3)CC2)c1 [KUC103366N]
2310 nM | COc1ccc(-c2noc(CCC(=O)N3CCN(c4ccccc4Br)CC3)n2)cc1 [KUC103370N]
> 30000 nM | Cc1ccc(C)c(N2CCN(C(=O)CCc3nc(-c4cccc(C(F)(F)F)c4)no3)CC2)c1 [KUC103380N]
> 30000 nM | COc1ccc(-c2noc(CCC(=O)N3CCN(c4ccc(F)cc4)CC3)n2)cc1 [KUC103398N]
> 30000 nM | Cc1ccc(C)c(N2CCN(C(=O)CCc3nc(-c4ccccc4F)no3)CC2)c1 [KUC103401N]
1420 nM | COc1ccc(-c2noc(CCC(=O)N3CCC(c4cc(C)ccc4C)CC3)n2)cc1 [KUC103432N]
> 30000 nM | COc1ccc(-c2ccc(CCC(=O)N3CCN(c4cc(C)ccc4C)CC3)o2)cc1 [KUC103447N]
4000 nM | Cc1ccc(C)c(N2CCN(C(=O)CCc3nc(-c4ccccc4)no3)CC2)c1 [UNM-0000306070]
1720 nM | Cc1ccc(C)c(N2CCN(C(=O)CCc3nc(-c4ccc(Cl)cc4)no3)CC2)c1 [UNM-0000306083]
2180 nM | Cc1ccc(C)c(N2CCN(C(=O)CCc3nc(-c4cccc(Cl)c4)no3)CC2)c1 [UNM-0000306086]
> 30000 nM | COc1ccc(-c2noc(CCC(=O)N3CCN(c4ccc(Cl)cc4)CC3)n2)cc1 [UNM-0000306121]
> 30000 nM | COc1ccc(-c2noc(CCC(=O)N3CCN(c4cccc(C)c4)CC3)n2)cc1 [UNM-0000306125]
> 30000 nM | COc1ccc(-c2cc(CCC(=O)N3CCN(c4cc(C)ccc4C)CC3)[nH]n2)cc1 [UNM-0000306150]

Same assay, conditions: inactive by the depositor's call

EC50 | Structure (SMILES)
1150 nM | COc1ccc(-c2noc(CCC(=O)N3CCN(c4cccc(C)c4C)CC3)n2)cc1 [1-[4-(2,3-dimethylphenyl)-1-piperazinyl]-3-[3-(4-methoxyphenyl)-1,2,4-oxadiazol-5-yl]-1-propanone]
2740 nM | COc1ccc(-c2noc(CCC(=O)N3CCN(c4cc(C)ccc4C)CC3)n2)cc1 [1-[4-(2,5-dimethylphenyl)-1-piperazinyl]-3-[3-(4-methoxyphenyl)-1,2,4-oxadiazol-5-yl]-1-propanone]
3210 nM | Cc1ccc(C)c(N2CCN(C(=O)CCc3nc(-c4ccc(C(F)(F)F)cc4)no3)CC2)c1 [1-[4-(2,5-dimethylphenyl)-1-piperazinyl]-3-[3-[4-(trifluoromethyl)phenyl]-1,2,4-oxadiazol-5-yl]-1-propanone]
655 nM | COc1ccc(-c2noc(CCC(=O)N3CCN(c4ccccc4F)CC3)n2)cc1 [1-[4-(2-fluorophenyl)piperazin-1-yl]-3-[3-(4-methoxyphenyl)-1,2,4-oxadiazol-5-yl]propan-1-one]
1920 nM | COc1ccc(-c2noc(CCC(=O)N3CCN(c4cccc(C(F)(F)F)c4)CC3)n2)cc1 [1-{3-[3-(4-methoxyphenyl)-1,2,4-oxadiazol-5-yl]propanoyl}-4-[3-(trifluoromethyl)phenyl]piperazine]
2340 nM | Cc1ccc(C)c(N2CCN(C(=O)CCc3nc(-c4ccccc4Br)no3)CC2)c1 [3-[3-(2-bromophenyl)-1,2,4-oxadiazol-5-yl]-1-[4-(2,5-dimethylphenyl)-1-piperazinyl]-1-propanone]
450 nM | COc1ccc(-c2noc(CCC(=O)N3CCN(c4ccc(OC)cc4)CC3)n2)cc1 [3-[3-(4-methoxyphenyl)-1,2,4-oxadiazol-5-yl]-1-[4-(4-methoxyphenyl)piperazin-1-yl]propan-1-one]
566 nM | COc1ccc(-c2noc(CCC(=O)N3CCN(c4ccc(C)cc4)CC3)n2)cc1 [3-[3-(4-methoxyphenyl)-1,2,4-oxadiazol-5-yl]-1-[4-(4-methylphenyl)piperazin-1-yl]propan-1-one]
12100 nM | COc1ccc(-c2noc(CCC(=O)N3CCN(c4cccc(OC)c4)CC3)n2)cc1 [KUC103349N]
360 nM | Cc1ccc(C)c(N2CCN(C(=O)CCc3nc(-c4ccc(F)cc4)no3)CC2)c1 [KUC103364N]
2140 nM | Cc1ccc(C)c(N2CCN(C(=O)CCc3nc(-c4cccc(Br)c4)no3)CC2)c1 [KUC103367N]
1190 nM | Cc1ccc(C)c(N2CCN(C(=O)CCc3nc(-c4ccc(N(C)C)cc4)no3)CC2)c1 [KUC103409N]
1540 nM | COc1ccccc1-c1noc(CCC(=O)N2CCN(c3cc(C)ccc3C)CC2)n1 [UNM-0000306071]
1620 nM | Cc1ccc(C)c(N2CCN(C(=O)CCc3nc(-c4ccc(Br)cc4)no3)CC2)c1 [UNM-0000306072]
1980 nM | COc1ccc(-c2noc(CCC(=O)N3CCN(c4ccccc4C(F)(F)F)CC3)n2)cc1 [UNM-0000306082]
3670 nM | COc1ccc(-c2cccc(CCC(=O)N3CCN(c4cc(C)ccc4C)CC3)c2)cc1 [UNM-0000306127]
